From PubChem BioAssay (NCI)
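96-well plates; 48 h exposure; 5 concentrations. Endpoints by linear interpolation between flanking doses. Not reached: highest tested concentration assigned. Here, GI50 denotes the concentration required for 50% inhibition of growth. TGI: concentration producing complete growth inhibition.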

Tests used:
Test in all cases: inhibition of tumour cell growth, NCI panel, 48 h
786-0 renal = tested on: 786-0 renal
A498 renal = tested on: A498 renal
A549 NSCLC = tested on: A549 NSCLC
ACHN renal = tested on: ACHN renal
BT-549 breast = tested on: BT-549 breast
CAKI-1 renal = tested on: CAKI-1 renal
CCRF-CEM leukemia = tested on: CCRF-CEM leukemia
COLO 205 colon = tested on: COLO 205 colon
DU-145 prostate = tested on: DU-145 prostate
EKVX NSCLC = tested on: EKVX NSCLC
HCT-116 colon = tested on: HCT-116 colon
HCT-15 colon = tested on: HCT-15 colon
HL-60(TB) leukemia = tested on: HL-60(TB) leukemia
HOP-62 NSCLC = tested on: HOP-62 NSCLC
HOP-92 NSCLC = tested on: HOP-92 NSCLC
HS 578T breast = tested on: HS 578T breast
HT29 colon = tested on: HT29 colon
IGROV1 ovarian = tested on: IGROV1 ovarian
K-562 leukemia = tested on: K-562 leukemia
KM12 colon = tested on: KM12 colon
LOX IMVI melanoma = tested on: LOX IMVI melanoma
M14 melanoma = tested on: M14 melanoma
MALME-3M melanoma = tested on: MALME-3M melanoma
MCF7 breast = tested on: MCF7 breast
MDA-MB-231 breast = tested on: MDA-MB-231 breast
MDA-MB-435 = tested on: MDA-MB-435
MOLT-4 leukemia = tested on: MOLT-4 leukemia
NCI-H226 lung = tested on: NCI-H226 lung
NCI-H23 lung = tested on: NCI-H23 lung
NCI-H460 lung = tested on: NCI-H460 lung
NCI-H522 lung = tested on: NCI-H522 lung
NCI/ADR-RES ovarian = tested on: NCI/ADR-RES ovarian
OVCAR-3 ovarian = tested on: OVCAR-3 ovarian
OVCAR-4 ovarian = tested on: OVCAR-4 ovarian
OVCAR-5 ovarian = tested on: OVCAR-5 ovarian
OVCAR-8 ovarian = tested on: OVCAR-8 ovarian
PC-3 prostate = tested on: PC-3 prostate
RPMI-8226 leukemia = tested on: RPMI-8226 leukemia
RXF 393 renal = tested on: RXF 393 renal
SF-268 CNS = tested on: SF-268 CNS
SF-539 CNS = tested on: SF-539 CNS
SK-MEL-2 melanoma = tested on: SK-MEL-2 melanoma
SK-MEL-28 melanoma = tested on: SK-MEL-28 melanoma
SK-MEL-5 melanoma = tested on: SK-MEL-5 melanoma
SK-OV-3 ovarian = tested on: SK-OV-3 ovarian
SN12C renal = tested on: SN12C renal
SNB-19 CNS = tested on: SNB-19 CNS
SNB-75 CNS = tested on: SNB-75 CNS
SR leukemia = tested on: SR leukemia
SW-620 colon = tested on: SW-620 colon
T-47D breast = tested on: T-47D breast
TK-10 renal = tested on: TK-10 renal
U251 CNS = tested on: U251 CNS
UACC-257 melanoma = tested on: UACC-257 melanoma
UACC-62 melanoma = tested on: UACC-62 melanoma
UO-31 renal = tested on: UO-31 renal
HCC-2998 colon = tested on: HCC-2998 colon
MDA-N = tested on: MDA-N

Which results are given for `CN(C)CCNC(=O)c1cc2c3ccccc3[nH]c2c2ncccc12`?
GI50 (786-0 renal): 15.2 µM; TGI (786-0 renal): 53.5 µM; GI50 (A498 renal): 7.82 µM; TGI (A498 renal): 21.4 µM; GI50 (A549 NSCLC): 6.46 µM; TGI (A549 NSCLC): 36.9 µM; GI50 (ACHN renal): 4.24 µM; TGI (ACHN renal): 28 µM; GI50 (BT-549 breast): 6.36 µM; TGI (BT-549 breast): 20.7 µM; GI50 (CAKI-1 renal): 0.515 µM; TGI (CAKI-1 renal): 12.3 µM; GI50 (CCRF-CEM leukemia): 3.46 µM; TGI (CCRF-CEM leukemia): 15.8 µM; GI50 (COLO 205 colon): 2.95 µM; TGI (COLO 205 colon): 16.5 µM; GI50 (DU-145 prostate): 11.5 µM; TGI (DU-145 prostate): 30.7 µM; GI50 (EKVX NSCLC): 7.81 µM; TGI (EKVX NSCLC): 38.2 µM; GI50 (HCT-116 colon): 3.95 µM; TGI (HCT-116 colon): 25.3 µM; GI50 (HCT-15 colon): 5.88 µM; TGI (HCT-15 colon): 25 µM; GI50 (HL-60(TB) leukemia): 10.2 µM; TGI (HL-60(TB) leukemia): 30 µM; GI50 (HOP-62 NSCLC): 11.1 µM; TGI (HOP-62 NSCLC): 37.5 µM; GI50 (HOP-92 NSCLC): 8.01 µM; TGI (HOP-92 NSCLC): 40.6 µM; GI50 (HS 578T breast): 3.57 µM; TGI (HS 578T breast): 28.1 µM; GI50 (HT29 colon): 5.27 µM; TGI (HT29 colon): 34.1 µM; GI50 (IGROV1 ovarian): 1.14 µM; TGI (IGROV1 ovarian): 19.1 µM; GI50 (K-562 leukemia): 9.05 µM; TGI (K-562 leukemia): 26.2 µM; GI50 (KM12 colon): 12.8 µM; TGI (KM12 colon): 77.4 µM; GI50 (LOX IMVI melanoma): 4.14 µM; TGI (LOX IMVI melanoma): 17.5 µM; GI50 (M14 melanoma): 12.1 µM; TGI (M14 melanoma): 27.2 µM; GI50 (MALME-3M melanoma): 10.7 µM; TGI (MALME-3M melanoma): 26.5 µM; GI50 (MCF7 breast): 4.53 µM; TGI (MCF7 breast): 20.9 µM; GI50 (MDA-MB-231 breast): 5.25 µM; TGI (MDA-MB-231 breast): 26.8 µM; GI50 (MDA-MB-435): 2.89 µM; TGI (MDA-MB-435): 15.4 µM; GI50 (MOLT-4 leukemia): 3.46 µM; TGI (MOLT-4 leukemia): 16.5 µM; GI50 (NCI-H226 lung): 9.8 µM; TGI (NCI-H226 lung): 39.6 µM; GI50 (NCI-H23 lung): 11.6 µM; TGI (NCI-H23 lung): 32.6 µM; GI50 (NCI-H460 lung): 4.17 µM; TGI (NCI-H460 lung): 18.4 µM; GI50 (NCI-H522 lung): 7.08 µM; TGI (NCI-H522 lung): 24.5 µM; GI50 (NCI/ADR-RES ovarian): 22.5 µM; TGI (NCI/ADR-RES ovarian): > 100 µM; GI50 (OVCAR-3 ovarian): 0.0254 µM; TGI (OVCAR-3 ovarian): 16.8 µM; GI50 (OVCAR-4 ovarian): 8.48 µM; TGI (OVCAR-4 ovarian): 47.7 µM; GI50 (OVCAR-5 ovarian): 20.6 µM; TGI (OVCAR-5 ovarian): 68.3 µM; GI50 (OVCAR-8 ovarian): 6.11 µM; TGI (OVCAR-8 ovarian): 40.9 µM; GI50 (PC-3 prostate): 9.14 µM; TGI (PC-3 prostate): 34.2 µM; GI50 (RPMI-8226 leukemia): 6.01 µM; TGI (RPMI-8226 leukemia): 22.7 µM; GI50 (RXF 393 renal): 6.08 µM; TGI (RXF 393 renal): 20.1 µM; GI50 (SF-268 CNS): 6.37 µM; TGI (SF-268 CNS): 23.7 µM; GI50 (SF-539 CNS): 8.87 µM; TGI (SF-539 CNS): 21.1 µM; GI50 (SK-MEL-2 melanoma): 9.15 µM; TGI (SK-MEL-2 melanoma): 72.5 µM; GI50 (SK-MEL-28 melanoma): 15.3 µM; TGI (SK-MEL-28 melanoma): 29.9 µM; GI50 (SK-MEL-5 melanoma): 6.05 µM; TGI (SK-MEL-5 melanoma): 20.1 µM; GI50 (SK-OV-3 ovarian): 23.5 µM; TGI (SK-OV-3 ovarian): > 100 µM; GI50 (SN12C renal): 7.36 µM; TGI (SN12C renal): 39.2 µM; GI50 (SNB-19 CNS): 14.7 µM; TGI (SNB-19 CNS): 93.2 µM; GI50 (SNB-75 CNS): 5.44 µM; TGI (SNB-75 CNS): 21.4 µM; GI50 (SR leukemia): 3.34 µM; TGI (SR leukemia): 13.2 µM; GI50 (SW-620 colon): 4.24 µM; TGI (SW-620 colon): 24.9 µM; GI50 (T-47D breast): 18.4 µM; TGI (T-47D breast): > 100 µM; GI50 (TK-10 renal): 8.99 µM; TGI (TK-10 renal): 54.7 µM; GI50 (U251 CNS): 12.2 µM; TGI (U251 CNS): 37 µM; GI50 (UACC-257 melanoma): 10.4 µM; TGI (UACC-257 melanoma): 88.1 µM; GI50 (UACC-62 melanoma): 13.4 µM; TGI (UACC-62 melanoma): 28 µM; GI50 (UO-31 renal): 2.13 µM; TGI (UO-31 renal): 24.3 µM

With `Clc1ccccc1-c1nnc2c(-c3ccccc3)nc3ccccc3n12` as the compound, how does the TGI (786-0 renal) read?
The TGI was > 100 µM.

What about the TGI (A498 renal) of the same compound?
Its TGI is > 100 µM.

What about the TGI (A549 NSCLC) of the same compound?
Its TGI is > 100 µM.

And the TGI (ACHN renal)?
Its TGI is > 100 µM.

What about the TGI (BT-549 breast) of the same compound?
The TGI was > 100 µM.

What about the TGI (CCRF-CEM leukemia) of the same compound?
The TGI was 83.2 µM.

And the TGI (COLO 205 colon)?
Its TGI is > 100 µM.

What about the TGI (DU-145 prostate) of the same compound?
Its TGI is > 100 µM.

And the TGI (EKVX NSCLC)?
The TGI was > 100 µM.

And the TGI (HCC-2998 colon)?
The TGI was > 100 µM.

And the TGI (HCT-116 colon)?
Its TGI is > 100 µM.

What about the TGI (HCT-15 colon) of the same compound?
Its TGI is > 100 µM.

And the TGI (HL-60(TB) leukemia)?
The TGI was > 100 µM.

And the TGI (HOP-62 NSCLC)?
The TGI was > 100 µM.

And the TGI (HOP-92 NSCLC)?
Its TGI is > 100 µM.

And the TGI (HT29 colon)?
Its TGI is > 100 µM.

And the TGI (IGROV1 ovarian)?
Its TGI is > 100 µM.

And the TGI (K-562 leukemia)?
Its TGI is > 100 µM.

And the TGI (KM12 colon)?
The TGI was > 100 µM.

What about the TGI (LOX IMVI melanoma) of the same compound?
Its TGI is > 100 µM.

And the TGI (M14 melanoma)?
Its TGI is > 100 µM.

And the TGI (MALME-3M melanoma)?
Its TGI is > 100 µM.

And the TGI (MCF7 breast)?
The TGI was > 100 µM.

What about the TGI (MDA-MB-231 breast) of the same compound?
The TGI was > 100 µM.

And the TGI (MDA-MB-435)?
The TGI was > 100 µM.

And the TGI (MDA-N)?
Its TGI is > 100 µM.

And the TGI (MOLT-4 leukemia)?
The TGI was > 100 µM.

And the TGI (NCI-H226 lung)?
The TGI was > 100 µM.

And the TGI (NCI-H23 lung)?
Its TGI is > 100 µM.

And the TGI (NCI-H460 lung)?
The TGI was > 100 µM.

What about the TGI (NCI/ADR-RES ovarian) of the same compound?
Its TGI is > 100 µM.

And the TGI (OVCAR-3 ovarian)?
The TGI was > 100 µM.

What about the TGI (OVCAR-4 ovarian) of the same compound?
Its TGI is > 100 µM.

What about the TGI (OVCAR-5 ovarian) of the same compound?
Its TGI is > 100 µM.

What about the TGI (PC-3 prostate) of the same compound?
Its TGI is > 100 µM.

What about the TGI (RPMI-8226 leukemia) of the same compound?
Its TGI is > 100 µM.

What about the TGI (RXF 393 renal) of the same compound?
Its TGI is > 100 µM.

What about the TGI (SF-268 CNS) of the same compound?
The TGI was > 100 µM.

And the TGI (SF-539 CNS)?
The TGI was > 100 µM.

And the TGI (SK-MEL-2 melanoma)?
Its TGI is > 100 µM.

And the TGI (SK-MEL-28 melanoma)?
Its TGI is > 100 µM.

What about the TGI (SK-MEL-5 melanoma) of the same compound?
The TGI was > 100 µM.

And the TGI (SK-OV-3 ovarian)?
The TGI was > 100 µM.

And the TGI (SN12C renal)?
Its TGI is > 100 µM.

What about the TGI (SNB-19 CNS) of the same compound?
Its TGI is > 100 µM.

And the TGI (SR leukemia)?
Its TGI is > 100 µM.

And the TGI (SW-620 colon)?
Its TGI is > 100 µM.

What about the TGI (T-47D breast) of the same compound?
The TGI was 69.2 µM.

What about the TGI (TK-10 renal) of the same compound?
The TGI was > 100 µM.

And the TGI (U251 CNS)?
Its TGI is > 100 µM.

And the TGI (UACC-257 melanoma)?
The TGI was > 100 µM.

What about the TGI (UACC-62 melanoma) of the same compound?
The TGI was > 100 µM.
